Assay results: patent US10894784B2, “Heteroarylbenzimidazole compounds” (BAYER PHARMA AKTIENGESELLSCHAFT, priority 2015, dated 2021)

Target: TBK1 (Homo sapiens (Human), UniProt Q9UHD2)
Test: TBK1 low ATP kinase assay (in vitro assay 1)
Assay type: biochemical
Details: in vitro assay 1, read-out: TBK1 low ATP kinase assay IC50

TBK1, sequence (Q9UHD2 whole entry): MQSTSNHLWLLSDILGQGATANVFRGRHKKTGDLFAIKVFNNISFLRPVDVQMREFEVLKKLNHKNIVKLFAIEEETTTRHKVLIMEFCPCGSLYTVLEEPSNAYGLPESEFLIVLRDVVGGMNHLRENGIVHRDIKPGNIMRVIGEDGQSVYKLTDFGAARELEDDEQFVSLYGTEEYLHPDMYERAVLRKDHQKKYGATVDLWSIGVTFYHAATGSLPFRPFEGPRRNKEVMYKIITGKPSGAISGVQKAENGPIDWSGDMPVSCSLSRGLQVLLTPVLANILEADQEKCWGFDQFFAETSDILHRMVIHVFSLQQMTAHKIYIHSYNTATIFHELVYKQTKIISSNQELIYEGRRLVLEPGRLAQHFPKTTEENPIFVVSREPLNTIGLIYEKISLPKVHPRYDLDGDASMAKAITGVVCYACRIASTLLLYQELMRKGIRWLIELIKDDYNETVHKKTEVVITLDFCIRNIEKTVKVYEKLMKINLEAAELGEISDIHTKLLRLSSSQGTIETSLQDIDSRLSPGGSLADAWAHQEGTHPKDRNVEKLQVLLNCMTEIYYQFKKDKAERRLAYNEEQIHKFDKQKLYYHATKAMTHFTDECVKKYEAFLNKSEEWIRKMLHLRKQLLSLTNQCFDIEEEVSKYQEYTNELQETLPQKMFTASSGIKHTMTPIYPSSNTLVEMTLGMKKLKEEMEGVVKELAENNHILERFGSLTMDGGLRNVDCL

Row | Compound | IC50 [µM]
1 | CN(c1cc(-c2ccc3nc(Nc4cc(CN5CCN(C(=O)OC(C)(C)C)CC5)ccn4)[nH]c3c2)ncn1)C1CC1 [Example 157.01, tert-butyl 4-({2-[(6-{6-[cyclopropyl(methyl)amino]pyrimidin-4-yl}-1H-benzimidazol-2-yl)amino]pyridin-4-yl}methyl)piperazine-1-carboxylate] | 0.025
2 | CC(c1ccnc(Nc2nc3cc(-c4cc(C(F)(F)F)nn4C)ccc3[nH]2)c1)N1CCN(C(=O)OC(C)(C)C)CC1 (single isomer, unassigned) [Example 88.01, tert-butyl 4-{(1R or 1S)-1-[2-({6-[1-methyl-3-(trifluoromethyl)-1H-pyrazol-5-yl]-1H-benzimidazol-2-yl}amino)pyridin-4-yl]ethyl}piperazine-1-carboxylate] | 11
3 | O=C(CC(F)(F)F)N1CCN(Cc2ccnc(Nc3nc4ccc(-c5cc(C6CC6)ncn5)cc4[nH]3)c2)CC1 [Example 76.01, 1-{4-[(2-{[6-(6-cyclopropylpyrimidin-4-yl)-1H-benzimidazol-2-yl]amino}pyridin-4-yl)methyl]piperazin-1-yl}-3,3,3-trifluoropropan-1-one] | 0.0032
4 | COc1cc(-c2ccc3nc(Nc4cc(CN5CCN(C(=O)C6CCC6)CC5)ccn4)[nH]c3c2)ccn1 [Example 02.04, cyclobutyl{4-[(2-{[6-(2-methoxypyridin-4-yl)-1H-benzimidazol-2-yl]amino}pyridin-4-yl)methyl]piperazin-1-yl}methanone] | 0.0434
5 | CN(C)c1ncnc(-c2ccc3nc(Nc4cc(CN5CCN(C(=O)CC(F)(F)F)CC5)ccn4)[nH]c3c2)c1F [Example 162.02, 1-(4-{[2-({6-[6-(dimethylamino)-5-fluoropyrimidin-4-yl]-1H-benzimidazol-2-yl}amino)pyridin-4-yl]methyl}piperazin-1-yl)-3,3,3-trifluoropropan-1-one] | 0.02
6 | Cc1noc(-c2ccc3nc(Nc4cc(CN5C[C@@H](C)N(C(=O)C6CCC6)C[C@@H]5C)ccn4)[nH]c3c2)n1 [Example 16.02.05, cyclobutyl{(2R,5S)-2,5-dimethyl-4-[(2-{[6-(3-methyl-1,2,4-oxadiazol-5-yl)-1H-benzimidazol-2-yl]amino}pyridin-4-yl)methyl]piperazin-1-yl}methanone] | 0.405
7 | CC(c1ccnc(Nc2nc3ccc(-c4cc(C(F)(F)F)nn4C)cc3[nH]2)c1)N1CCN(C(=O)CC(F)(F)F)CC1 (single isomer, unassigned) [Example 88.02, 3,3,3-trifluoro-1-(4-{(1R or 1S)-1-[2-({6-[1-methyl-3-(trifluoromethyl)-1H-pyrazol-5-yl]-1H-benzimidazol-2-yl}amino)pyridin-4-yl]ethyl}piperazin-1-yl)propan-1-one] | 0.86
8 | Cc1cc(-c2ccc3nc(Nc4cc(CN5CCN(C(=O)OC(C)(C)C)CC5)ccn4)[nH]c3c2)cc(C#N)n1 [Example 136.01, tert-butyl 4-[(2-{[6-(2-cyano-6-methylpyridin-4-yl)-1H-benzimidazol-2-yl]amino}pyridin-4-yl)methyl]piperazine-1-carboxylate] | 0.053
9 | O=C(CC(F)(F)F)N1CCN(Cc2ccnc(Nc3nc4ccc(-c5ncnc6ccoc56)cc4[nH]3)c2)CC1 [Example 168.02, 3,3,3-trifluoro-1-{4-[(2-{[6-(furo[3,2-d]pyrimidin-4-yl)-1H-benzimidazol-2-yl]amino}pyridin-4-yl)methyl]piperazin-1-yl}propan-1-one] | 0.00418
10 | Cc1ncc(-c2ccc3nc(Nc4cc(CN5CCN(C(=O)CC(F)(F)F)CC5)ccn4)[nH]c3c2)cn1 [Example 45.03.01, 3,3,3-trifluoro-1-{4-[(2-{[6-(2-methylpyrimidin-5-yl)-1H-benzimidazol-2-yl]amino}pyridin-4-yl)methyl]piperazin-1-yl}propan-1-one] | 3.79
11 | Cc1noc(-c2ccc3nc(Nc4cc(CN5CCN(C(=O)CC6CC6)C[C@H]5C)ccn4)[nH]c3c2)n1 [Example 16.03.03, 2-cyclopropyl-1-{(3R)-3-methyl-4-[(2-{[6-(3-methyl-1,2,4-oxadiazol-5-yl)-1H-benzimidazol-2-yl]amino}pyridin-4-yl)methyl]piperazin-1-yl}ethanone] | 0.067
12 | CC(c1ccnc(Nc2nc3ccc(-c4cnn(CC5CC5(C)C)c4)cc3[nH]2)c1)N1CCN(C(=O)OC(C)(C)C)CC1 (single isomer, unassigned) [Example 67.01, tert-butyl 4-[(1R or 1S)-1-(2-{[6-(1-{[(1RS)-2,2-dimethylcyclopropyl]methyl}-1H-pyrazol-4-yl)-1H-benzimidazol-2-yl]amino}pyridin-4-yl)ethyl]piperazine-1-carboxylate] | 0.046
13 | COc1c(NC2CC2)ncnc1-c1ccc2nc(Nc3cc(CN4CCN(C(=O)CC(F)(F)F)CC4)ccn3)[nH]c2c1 [Example 108.02, 1-(4-{[2-({6-[6-(cyclopropylamino)-5-methoxypyrimidin-4-yl]-1H-benzimidazol-2-yl}amino)pyridin-4-yl]methyl}piperazin-1-yl)-3,3,3-trifluoropropan-1-one] | 0.0082
14 | Cc1noc(-c2ccc3nc(Nc4cc(CN5CCN(C(=O)CC(F)(F)F)CC5)ccn4)[nH]c3c2)n1 [Example 16.01.02, 3,3,3-trifluoro-1-{4-[(2-{[6-(3-methyl-1,2,4-oxadiazol-5-yl)-1H-benzimidazol-2-yl]amino}pyridin-4-yl)methyl]piperazin-1-yl}propan-1-one] | 0.109
15 | COc1cncnc1-c1ccc2nc(Nc3cc(C(C)N4CCN(C(=O)C5CCC5)CC4)ccn3)[nH]c2c1 (single isomer, unassigned) [Example 35.03.04.B, cyclobutyl{4-[(1R or 1S)-1-(2-{[6-(5-methoxypyrimidin-4-yl)-1H-benzimidazol-2-yl]amino}pyridin-4-yl)ethyl]piperazin-1-yl}methanone] | 0.0345
16 | N#Cc1cnccc1-c1ccc2nc(Nc3cc(CN4CCN(C(=O)C5CC5)CC4)ccn3)[nH]c2c1 [Example 103.01, 4-{2-[(4-{[4-(cyclopropylcarbonyl)piperazin-1-yl]methyl}pyridin-2-yl)amino]-1H-benzimidazol-6-yl}pyridine-3-carbonitrile] | 0.36
17 | COc1c(NC2CC2)ncnc1-c1ccc2nc(Nc3cc(CN4CCN(C(=O)OC(C)(C)C)CC4)ccn3)[nH]c2c1 [Example 108.01, tert-butyl 4-{[2-({6-[6-(cyclopropylamino)-5-methoxypyrimidin-4-yl]-1H-benzimidazol-2-yl}amino)pyridin-4-yl]methyl}piperazine-1-carboxylate] | 0.035
18 | CC(C)(C)Cc1nc(-c2ccc3nc(Nc4cc(CN5CCN(c6ccccc6Cl)CC5)ccn4)[nH]c3c2)no1 [Example 22.02, N-(4-{[4-(2-chlorophenyl)piperazin-1-yl]methyl}pyridin-2-yl)-6-[5-(2,2-dimethylpropyl)-1,2,4-oxadiazol-3-yl]-1H-benzimidazol-2-amine] | 0.779
19 | CN(C)c1ncnc(-c2ccc3nc(Nc4cc(CN5CCN(C(=O)CC(F)(F)F)CC5)ccn4)[nH]c3c2)c1Cl [Example 179.02, 1-(4-{[2-({6-[5-chloro-6-(dimethylamino)pyrimidin-4-yl]-1H-benzimidazol-2-yl}amino)pyridin-4-yl]methyl}piperazin-1-yl)-3,3,3-trifluoropropan-1-one] | 1.14
